# Reference: patent US20250090626A1, “NEW PEPTIDE AND USES THEREOF” (Neo Cremar Co., Ltd., priority 2021, published 2025)
# No end group written: not given here.
# Legend:
# C2C12 cells = assay: Myodifferentiation, Giemsa staining, root canal formation and fusion index; type: cell-based, mouse; details: 3 days
# Procedure: When C2C12 cells were 70% grown, media were replaced with myodifferentiation medium added with MSTN protein (1 ng), Ac-MIF1 (1000 nM), and Ac-MIF1 (1000 nM)+MSTN protein (1 ng) from proliferation medium, followed by culture for 3 days.
# When the cells grew more than 70% for differentiation of myoblasts into myocytes, they were cultured for 3 days by replacing with a differentiation medium (DMEM+2% FBS+1% P/S). The medium was replaced once daily, and the cells were cultured at 37° C.
# The cell medium was removed, and the cells were washed with PBS. After washing, a methanol:PBS reagent in a 1:1 volume ratio was treated, followed by fixation for 2 minutes. Additionally, after a methanol:PBS reagent in a 2:1 volume ratio was added, fixation was followed for additional 2 minutes. After 2 minutes, 0.04% Giemsa reagent was added, and then the cells were left for 30 minutes, washed with PBS after 30 minutes, and observed under a microscope, with 3 photographs taken for each cell (300×). In the photographs taken, the number of fused nuclei in the root canal cells was counted, the number of nuclei of total cells was counted, and the number of fused nuclei was divided by the number of nuclei of the total cells to obtain the % value.
# 3T3L1 cells [1] = assay: 3T3L1 cell proliferation (MTT method); type: cell-based, mouse; details: 3T3L1, Ac-MIF1 1000 nM, 2 days, FIG. 13A
# Procedure: 3T3L1 cells, mouse fibroblasts, were cultured in Dulbecco's Modified Eagle's Medium (DMEM)+10% fetal bovine serum (FBS)+1% penicillin/streptomycin (P/S). To validate the effect of MIF peptide, 3T3L1 cells (2×10^3 cells/ml) were placed in a 12-well cell culture dish, attached for 24 hours, and treated with MIF peptide (1000 nM) for 2 days, followed by observation of cell proliferation by MTT method. The medium was replaced every 2 days, and the cells were cultured at 37° C.
# To validate cell proliferation, the culture medium of the cells was removed, the cells were washed with DMEM, 500 μl of MTT reagent (0.5 mg/ml) dissolved in phosphate buffered saline (PBS) was added to each well, and the cells were left at 37° C. for 1 hour. The reaction solution was removed, and 1000 μl of DMSO was added to each well. Purple formazan crystals were completely dissolved in DMSO, and the absorbance was measured at 540 nm.
# 3T3L1 cells [2] = assay: Adipodifferentiation of 3T3L1 cells, Oil red O staining; type: cell-based, mouse; details: 3T3L1, adipocyte-induced differentiation medium with Ac-MIF1, 4 days; FIG. 13B
# Procedure: For differentiation of 3T3L1 cells into adipocytes, when the cells grew about 100% or more, they were replaced with differentiation medium (DMEM+10% FBS+1% P/S+10 ug/ml insulin+1 μM dexametazone+0.5 μM IBMX (3-isobutyl-1-methylxanthine)) and cultured for 2 days. After 2 days, MIF was treated in a medium including 10 ug/ml insulin to induce cell differentiation.
# 3T3L1 cells were treated with peptides and differentiated for 4 days, then the medium was removed, and the cells were washed with normal saline, treated with 10% formaldehyde, and left for 10 minutes. After 10 minutes, Oil-red O staining agents (6 ([…] Oil-red O reagent+1 ml 100% isopropanol):4 (distilled water)) were treated and left for 1 hour. After 1 hour, cells were washed with normal saline and then observed under a microscope. To measure the Oil-red O stained in the intracellularly differentiated cells, 100% isopropanol was added and collected, followed by measurement at 510 nm.
# C57BL/6 mice = assay: Myoregeneration effect upon injection of Ac-MIF1 peptide in cardiotoxin-damaged gastrocnemius; type: in vivo, mouse
# Source text: The male C57BL/6 mice were purchased from Dae Han Bio Link Co., Ltd., four of which per cage were kept in a temperature-controlled room with a 12-hour light cycle. The animals were fed with a standard rodent diet containing 4.0% (wt/wt) total fat (Rodent NIH-31 Open Formula Auto; Zeigler Bros., Inc., Gardners, PA, USA) and water. All experiments involving animals complied with the guidelines (YUMC-AEC2015-006) issued by the Animal Control Committee of Youngnam University's Animal Research Institute. The MSTN knock-out mouse was provided by a laboratory at Seoul National University. Normal, MSTN+/− (heterozygous), and MSTN−/− (homozygous) adipose tissues were fixed by collecting from 6-week-old mice and stored at −80° C. until required for analysis.
# Muscle tissues containing paraffin was subjected to deparaffinization with xylene and ethanol and hydration, respectively, and the tissue was soaked in 0.3% hydrogen peroxide water (H2O2)/methanol for 15 minutes to stop endogenous peroxidase activity. Then, tissues were stained with hematoxylin/eosin for morphological observation or reacted with 1% normal goat serum at room temperature for 1 hour to block a reaction with non-specific antibodies, followed by a reaction with the primary antibody (1:50) at 4° C. for over 16 hours. After 16 hours, washing was performed 3 times with PBS, followed by a reaction with secondary antibody (1:100) with HRP conjugated at room temperature for 1 hour. Horse radish peroxidase-conjugated streptavidin was added to detect the expression of the protein, followed by observation under a microscope.
# In order to observe the myoregeneration effect following MIF peptide injection, mice were injected with Ac-MIF 1 peptide and injected/uninjected with cardiotoxin (hereinafter referred to as CTX) into the muscle, followed by observation of the morphology and regeneration of the muscle. A day after C57BL/6 mice were injected with Ac-MIF1 peptide (1.125 mM), […] cardiotoxin was injected into the gastrocnemius. Muscle tissues were sampled 7 days after CTX injection.
# Paraffin-embedded muscle sections were deparaffinized using xylene, rehydrated using a concentration gradient of ethanol, stained with hematoxylin and eosin, observed under an optical microscope, magnified at 400× scale, and photographed, followed by measurement of the diameter of muscle fibers using Image J software.
# [3] = muscle injected with Ac-MIF1 peptide, 7 days after CTX, FIG. 10A
# [4] = muscle injected with Ac-MIF1 peptide, 7 days after CTX, FIG. 10B
substance,measurement,setting,value
"Ac-VDFEAFWDWG [Ac-MIF1, MIF1 with N-terminus acetylated, 10 mer]","fusion index, increase compared to untreated cells","C2C12 cells; C2C12, differentiation medium including peptide",11%
same,root canal formation compared to untreated cells,"C2C12 cells; C2C12, differentiation medium",increased
same,fusion index compared to untreated cells,"C2C12 cells; C2C12, muscle differentiation medium, Ac-MIF1 1000 nM, FIG. 9",increased
same,"proliferation of 3T3L1 cells, decrease compared to cells without peptide treatment",3T3L1 cells [1],8%
same,"fat accumulation (Oil-red O intensity), decrease compared to cells without peptide treatment",3T3L1 cells [2],8%
same,muscle weight compared to muscle without injection,C57BL/6 mice; 7 days after CTX injection,no significant difference
same,muscle weight,"C57BL/6 mice; CTX + Ac-MIF 1, gastrocnemius, 7 days after CTX injection",0.140 ± 0.003 g
same,MSTN mRNA expression in muscle,C57BL/6 mice; [3],increased
same,MYL2 mRNA expression in muscle,C57BL/6 mice; [3],increased
same,MYOD mRNA expression in muscle,C57BL/6 mice; [3],increased
same,MYL2 protein expression in muscle,C57BL/6 mice; [4],increased
same,MYOD protein expression in muscle,C57BL/6 mice; [4],increased
same,MYOG protein expression in muscle,C57BL/6 mice; [4],increased
same,Pax7 protein expression in muscle,C57BL/6 mice; [4],increased
same,diameter of the muscle fibers compared to without peptide injection,"C57BL/6 mice; muscle injected with Ac-MIF1 peptide, 7 days after CTX, FIG. 10C",increased
